Tests used:
CCK-1 receptor = target: T1, CCK-1 receptor (Homo sapiens, UniProt P32238); assay: CCK1 binding assay ([125I]-BH-CCK-8S displacement, CHO-K1 membranes); details: membranes of CHO-K1 cells stably transfected with the CCK-1 receptor, 20 pM [125I]-BH-CCK-8S, 0.3 μM PD-134,308 present, 60 min at 21±3° C.; for Ki: read-out: CCK1 pKi (converted)
T1 construct: expressed in transfected cells; host or cells: CHO-K1
T1 sequence (P32238 1-428): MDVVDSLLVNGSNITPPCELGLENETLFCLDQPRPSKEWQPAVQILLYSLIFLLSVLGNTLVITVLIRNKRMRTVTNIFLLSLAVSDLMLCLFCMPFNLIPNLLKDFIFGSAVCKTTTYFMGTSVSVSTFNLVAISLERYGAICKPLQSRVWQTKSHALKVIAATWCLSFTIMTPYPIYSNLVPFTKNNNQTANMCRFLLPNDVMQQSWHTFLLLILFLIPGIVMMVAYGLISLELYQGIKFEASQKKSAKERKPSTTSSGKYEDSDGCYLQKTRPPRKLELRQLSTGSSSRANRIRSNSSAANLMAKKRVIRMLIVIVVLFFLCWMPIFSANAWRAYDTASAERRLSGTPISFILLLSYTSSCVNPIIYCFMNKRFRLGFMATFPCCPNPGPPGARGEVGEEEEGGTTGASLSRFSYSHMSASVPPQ
Method in brief: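 Membranes from CHO-K1 cells stably expressing CCK-1 incubated 1 h at 21±3° C with 20 pM [125I]-BH-CCK-8S in HEPES buffer pH 7.2 containing 0.3 μM PD-134,308 to block CCK-2. Bound radioactivity read by gamma counting after filtration. pKi derived via Cheng-Prusoff, with specific binding defined using 2-NAP.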

CCK2 receptor = target: T2, CCK2 receptor (Homo sapiens, UniProt P32239); assay: CCK2 binding assay ([125I]-BH-CCK-8S displacement, HEKZFP membranes); details: membranes of doxycycline-induced HEKZFP cells, 20 pM [125I]-BH-CCK-8S, 60 min at 21±3° C.; for Ki: read-out: CCK2 pKi (converted)
T2 construct: analyzed for ZFP expression as well as CCK2R induction upon addition of doxycycline to the culture medium; endogenous in cells
T2 sequence (P32239 1-447): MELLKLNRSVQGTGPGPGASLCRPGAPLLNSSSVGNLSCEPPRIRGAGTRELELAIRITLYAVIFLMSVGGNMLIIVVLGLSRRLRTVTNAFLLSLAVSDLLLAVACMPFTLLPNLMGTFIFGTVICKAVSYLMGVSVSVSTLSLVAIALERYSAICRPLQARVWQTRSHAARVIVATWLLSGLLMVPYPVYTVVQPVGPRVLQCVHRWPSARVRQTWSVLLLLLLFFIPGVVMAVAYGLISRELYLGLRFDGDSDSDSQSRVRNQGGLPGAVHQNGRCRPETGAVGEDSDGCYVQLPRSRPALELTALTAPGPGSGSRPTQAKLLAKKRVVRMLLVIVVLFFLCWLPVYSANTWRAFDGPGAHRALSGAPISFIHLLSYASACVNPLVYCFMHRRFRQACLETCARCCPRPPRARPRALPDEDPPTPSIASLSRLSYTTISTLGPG

SMILES	Ki (CCK-1 receptor)	Ki (CCK2 receptor)	CCK1 pKi (CCK-1 receptor)	CCK2 pKi (CCK2 receptor)
CC(CNC(=O)c1ccc(I)cc1NS(=O)(=O)c1c(F)cccc1F)c1ccc([N+](=O)[O-])cc1 (stereo not drawn) [Example 48, 2-(2,6-Difluoro-benzenesulfonylamino)-4-iodo-N-[2-(4-nitro-phenyl)-propyl]-benzamide]	50.1 nM	2000 nM	–	–
C[C@@H](NC(=O)c1ccc(Cl)cc1NS(=O)(=O)c1cccc2nsnc12)[C@@H](O)c1ccccc1 [Example 49, 2-(Benzo[1,2,5]thiadiazole-4-sulfonylamino)-4-chloro-N-((2S,1R)-2-hydroxy-1-methyl-2-phenyl-ethyl)-benzamide]	200 nM	2000 nM	–	–
O=C(NC1Cc2ccccc2C1)c1ccc(Cl)cc1NS(=O)(=O)c1cccc2nsnc12 [Example 50, 2-(Benzo[1,2,5]thiadiazole-4-sulfonylamino)-4-chloro-N-indan-2-yl-benzamide]	631 nM	6310 nM	–	–
C[C@@H](NC(=O)c1ccc(Cl)cc1NS(=O)(=O)c1cccc2nsnc12)[C@@H](O)c1ccc(Cl)cc1 [Example 55, 2-(Benzo[1,2,5]thiadiazole-4-sulfonylamino)-4-chloro-N-[(1R,2S)-2-(4-chloro-phenyl)-2-hydroxy-1-methyl-ethyl]-benzamide]	39.8 nM	1000 nM	–	–
C[C@H](c1ccc(Cl)c(Cl)c1)[C@H](NC(=O)c1ccc(Cl)cc1NS(=O)(=O)c1cccc2nsnc12)C(=O)O [Example 56, (2S,3R)-2-[2-(Benzo[1,2,5]thiadiazole-4-sulfonylamino)-4-chloro-benzoylamino]-3-(3,4-dichloro-phenyl)-butyric acid]	–	–	6.3	6.8
O=C(N[C@H](Cc1ccc(Cl)c(Cl)c1)C(=O)O)c1ccc(I)cc1NS(=O)(=O)c1cccc2nccnc12 [Example 60, (R)-3-(3,4-Dichloro-phenyl)-2-[4-iodo-2-(quinoxaline-5-sulfonylamino)-benzoylamino]-propionic acid]	79.4 nM	398 nM	–	–
O=C(N[C@H](Cc1ccc(Cl)cc1)C(=O)O)c1cc(Cl)ccc1NS(=O)(=O)c1cccc2nsnc12 [Example 62, (R)-2-[2-(Benzo[1,2,5]thiadiazole-4-sulfonylamino)-5-chloro-benzoylamino]-3-(4-chloro-phenyl)-propionic acid]	316 nM	3160 nM	–	–
O=C(O)C[C@H](Cc1ccc(Cl)c(Cl)c1)NC(=O)c1ccc(Cl)cc1NS(=O)(=O)c1cccc2nccnc12 [Example 64, (S)-3-[4-Chloro-2-(quinoxaline-5-sulfonylamino)-benzoylamino]-4-(3,4-dichloro-phenyl)-butyric acid]	1580 nM	100 nM	–	–
COC(=O)[C@H](Cc1csc2ccccc12)NC(=O)c1ccc(Cl)cc1NS(=O)(=O)c1cccc2nccnc12 [Example 65, (S)-3-Benzo[b]thiophen-3-yl-2-[4-chloro-2-(quinoxaline-5-sulfonylamino)-benzoylamino]-propionic acid methyl ester]	316 nM	794 nM	–	–
O=C(N[C@@H](Cc1csc2ccccc12)C(=O)O)c1ccc(Cl)cc1NS(=O)(=O)c1cccc2nccnc12 [Example 66, (S)-3-Benzo[b]thiophen-3-yl-2-[4-chloro-2-(quinoxaline-5-sulfonylamino)-benzoylamino]-propionic acid]	2000 nM	501 nM	–	–

Continued, values first:

Ki (CCK-1 receptor)	Ki (CCK2 receptor)	CCK1 pKi (CCK-1 receptor)	CCK2 pKi (CCK2 receptor)	SMILES
200 nM	251 nM	–	–	COC(=O)[C@H](Cc1ccc(Cl)cc1)NC(=O)c1cc(Cl)c(Cl)cc1NS(=O)(=O)c1cccc2nsnc12 [Example 67, (S)-2-[2-(Benzo[1,2,5]thiadiazole-4-sulfonylamino)-4,5-dichloro-benzoylamino]-3-(4-chloro-phenyl)-propionic acid methyl ester]
316 nM	31.6 nM	–	–	O=C(N[C@@H](Cc1ccc(Cl)cc1)C(=O)O)c1cc(Cl)c(Cl)cc1NS(=O)(=O)c1cccc2nsnc12 [Example 68, (S)-2-[2-(Benzo[1,2,5]thiadiazole-4-sulfonylamino)-4,5-dichloro-benzoylamino]-3-(4-chloro-phenyl)-propionic acid]
63.1 nM	7940 nM	–	–	COC(=O)[C@@H](Cc1ccc(Cl)cc1)NC(=O)c1ccc(Cl)cc1NS(=O)(=O)c1ccc(F)cc1F [Example 69, (R)-2-[4-Chloro-2-(2,4-difluoro-benzenesulfonylamino)-benzoylamino]-3-(4-chloro-phenyl)-propionic acid methyl ester]
200 nM	6310 nM	–	–	O=C(NCCc1ccc(Cl)cc1Cl)c1ccc(Cl)cc1NS(=O)(=O)c1cccc2nsnc12 [Example 70, 2-(Benzo[1,2,5]thiadiazole-4-sulfonylamino)-4-chloro-N-[2-(2,4-dichloro-phenyl)-ethyl]-benzamide]
126 nM	2510 nM	–	–	COC(=O)[C@H](Cc1ccc(Cl)cc1)NC(=O)c1ccc(Cl)cc1NS(=O)(=O)c1ccc(F)cc1F [Example 71, (S)-2-[4-Chloro-2-(2,4-difluoro-benzenesulfonylamino)-benzoylamino]-3-(4-chloro-phenyl)-propionic acid methyl ester]
79.4 nM	501 nM	–	–	CC(CNC(=O)c1ccc(I)cc1NS(=O)(=O)c1cccc2nsnc12)c1ccc(Cl)cc1 (stereo not drawn) [Example 72, 2-(Benzo[1,2,5]thiadiazole-4-sulfonylamino)-N-[2-(4-chloro-phenyl)-propyl]-4-iodo-benzamide]
316 nM	7940 nM	–	–	C[C@H](NC(=O)c1ccc(Cl)cc1NS(=O)(=O)c1cccc2nsnc12)C(O)(c1ccccc1)c1ccccc1 [Example 74, (S)-2-(Benzo[1,2,5]thiadiazole-4-sulfonylamino)-4-chloro-N-(2-hydroxy-1-methyl-2,2-diphenyl-ethyl)-benzamide]
1000 nM	3980 nM	–	–	O=C(NCCc1ccc(Cl)cc1Cl)c1ccccc1NS(=O)(=O)c1cccc2nsnc12 [Example 75, 2-(Benzo[1,2,5]thiadiazole-4-sulfonylamino)-N-[2-(2,4-dichloro-phenyl)-ethyl]-benzamide]
3160 nM	39.8 nM	–	–	O=C(N[C@@H](Cc1ccc(F)cc1)C(=O)O)c1ccc(Cl)cc1NS(=O)(=O)c1cccc2nsnc12 [Example 76, (S)-2-[2-(Benzo[1,2,5]thiadiazole-4-sulfonylamino)-4-chloro-benzoylamino]-3-(4-fluoro-phenyl)-propionic acid]
3980 nM	31.6 nM	–	–	O=C(N[C@@H](Cc1cccc(Cl)c1)C(=O)O)c1ccc(Cl)cc1NS(=O)(=O)c1cccc2nccnc12 [Example 78, (S)-3-(3-Chloro-phenyl)-2-[4-chloro-2-(quinoxaline-5-sulfonylamino)-benzoylamino]-propionic acid]
100 nM	1580 nM	–	–	O=C(NCCc1ccc(Br)cc1)c1ccc(Cl)cc1NS(=O)(=O)c1c(F)cccc1F [Example 80, N-[2-(4-Bromo-phenyl)-ethyl]-4-chloro-2-(2,6-difluoro-benzenesulfonylamino)-benzamide]
794 nM	2000 nM	–	–	CC(CNC(=O)c1c(Cl)cccc1NS(=O)(=O)c1cccc2nsnc12)c1ccc(Cl)c(Cl)c1 (stereo not drawn) [Example 81, 2-(Benzo[1,2,5]thiadiazole-4-sulfonylamino)-6-chloro-N-[2-(3,4-dichloro-phenyl)-propyl]-benzamide]
794 nM	7940 nM	–	–	O=C(O)C[C@@H](Cc1ccc(Cl)c(Cl)c1)NC(=O)c1ccc(Cl)cc1NS(=O)(=O)c1cccc2nccnc12 [Example 82, (R)-3-[4-Chloro-2-(quinoxaline-5-sulfonylamino)-benzoylamino]-4-(3,4-dichloro-phenyl)-butyric acid]
1580 nM	251 nM	–	–	O=C(N[C@@H](Cc1ccc(Cl)cc1)C(=O)O)c1cc(Cl)ccc1NS(=O)(=O)c1cccc2nsnc12 [Example 83, (S)-2-[2-(Benzo[1,2,5]thiadiazole-4-sulfonylamino)-5-chloro-benzoylamino]-3-(4-chloro-phenyl)-propionic acid]
